Results published in ChEMBL document CHEMBL1136493, “Synthesis and anti-HIV properties of new water-soluble bis-functionalized[60]fullerene derivatives” (Bioorg Med Chem Lett, 2003).

Legend:
Conditions in all cases: Homo sapiens
CCRF-CEM [1] = experiment: Effective concentration required to inhibit HIV-induced (HIV-2) cytopathicity by 50% in CEM cell cultures; assay type: functional, cell-based
CCRF-CEM [2] = experiment: Cytostatic concentration required to inhibit CEM cell proliferation by 50%; assay type: functional
CCRF-CEM [3] = experiment: Effective concentration required to inhibit HIV-induced (HIV-1) cytopathicity by 50% in CEM cell cultures; assay type: functional, cell-based

## C[N+]1(CCOCCOCCN)CC23C4=c5c6c7c8c9c%10c%11c%12c%13c%14c%15c%16c%17c%18c%19c%20c%21c%22c%23c%24c(c2c%22c2c%22c%25c%26c(c5c(c6%10)c5c%11c6c%13c(c%14%18)c%10c%19c(c%212)c%25c%10c6c%265)C%223C1)C4C7C1=C%24C(=C%16C2(C[N+](C)(CCOCCOCCN)CC182)C%15C9%12)C%23C%17%20 (stereo not given)
CCRF-CEM [1]
  EC50: > 4 µM
CCRF-CEM [2]
  CC50: 3.02 µM
CCRF-CEM [3]
  EC50: 0.96 µM

## COCCOCCOCCOC(=O)C1(C(=O)OCCOCCOCCOC)C23C4=c5c6c7c8c9c%10c%11c%12c%13c9c9c%14c%15c%16c%17c%18c%19c%20c%21c%22c%23c%24c(c-%11c(c2c%24c2c%11c%24c%25c(c5c5c6c(c8%14)c%15c6c%17c(c%25c56)c5c%18c%21c(c%232)c%245)C%1113)C4C%107)C%12C%22C%201CN(CCOCCOCCN)CC%131C9C%19%16 (stereo not given)
CCRF-CEM [1]
  EC50: > 4 µM
CCRF-CEM [3]
  EC50: > 4 µM

## C[N+]1(CCOCCOCCN)CC23C4=c5c6c7c8c9c%10c%11c%12c%13c9c9c%14c%15c%16c%17c%18c%19c%20c%21c%22c%23c%24c(c-%11c(c2c%24c2c%11c%24c%25c(c5c5c6c(c8%14)c%15c6c%17c(c%25c56)c5c%18c%21c(c%232)c%245)C%113C1)C4C%107)C%12C%22C%201C[N+](C)(CCOCCOCCN)CC%131C9C%19%16 (stereo not given)
CCRF-CEM [1]
  EC50: > 4 µM
CCRF-CEM [2]
  CC50: 4.79 µM
CCRF-CEM [3]
  EC50: 0.4 µM

## NCCOCCOCCN1CC23C4=c5c6c7c8c9c%10c%11c%12c%13c9c9c%14c%15c%16c%17c%18c%19c%20c%21c%22c%23c%24c(c-%11c(c2c%24c2c%11c%24c%25c(c5c5c6c(c8%14)c%15c6c%17c(c%25c56)c5c%18c%21c(c%232)c%245)C%113C1)C4C%107)C%12C%22C%201CN(CCOCCOCCN)CC%131C9C%19%16 (stereo not given)
CCRF-CEM [1]
  EC50: > 4 µM
CCRF-CEM [2]
  CC50: 7.2 µM
CCRF-CEM [3]
  EC50: > 4 µM

## NCCOCCOCCN1CC23C4=c5c6c7c8c9c%10c%11c%12c%13c%14c%15c%16c%17c%18c%19c%20c%21c%22c%23c%24c(c2c%22c2c%22c%25c%26c(c5c(c6%10)c5c%11c6c%13c(c%14%18)c%10c%19c(c%212)c%25c%10c6c%265)C%223C1)C4C7C1=C%24C(=C%16C2(CN(CCOCCOCCN)CC182)C%15C9%12)C%23C%17%20 (stereo not given)
CCRF-CEM [1]
  EC50: > 4 µM
CCRF-CEM [2]
  CC50: 7.63 µM
CCRF-CEM [3]
  EC50: > 4 µM

## C[N+]1(CCOCCOCCN)CC23C4=C5c6c7c8c9c(c%10c%11c%12c%13c%14c%15c%16c%17c%18c%19c%20c%21c%22c%23c(c6c6c%22c%22c%20c(c%15%19)c%13c(c%129)c%22c86)C5C5C6c8c9c(c-%17c%12c8C5C%23C%21C%12%18)C5c8c-9c(c2c-%10c8C%112C[N+](C)(CCOCCOCCN)CC%142C%165)C46)C73C1 (stereo not given)
CCRF-CEM [1]
  EC50: > 4 µM
CCRF-CEM [2]
  CC50: 6.59 µM
CCRF-CEM [3]
  EC50: 1.6 µM

## C[N+]1(CCOCCOCCN)CC23C4=c5c6c7c8c9c%10c%11c%12c%13c%14c%15c%16c%17c%18c%19c%20c%21c%22c%23c%24c(c2c%22c2c%22c%25c%26c(c5c(c6%10)c5c%11c6c%13c(c%14%18)c%10c%19c(c%212)c%25c%10c6c%265)C%223C1)C4C7c1c-%24c(c-%16c(c1-8)C%15C9%12)C%23C%17%20 (stereo not given)
CCRF-CEM [1]
  EC50: > 4 µM
CCRF-CEM [2]
  CC50: 44.3 µM
CCRF-CEM [3]
  EC50: > 4 µM

## O=C(O)CN(CCOCCOCCN1CC23C4=c5c6c7c8c9c%10c%11c%12c%13c9c9c%14c%15c%16c%17c%18c%19c%20c%21c%22c%23c%24c(c-%11c(c2c%24c2c%11c%24c%25c(c5c5c6c(c8%14)c%15c6c%17c(c%25c56)c5c%18c%21c(c%232)c%245)C%113C1)C4C%107)C%12C%22C%201CN(CCOCCOCCN(CC(=O)O)CC(=O)O)CC%131C9C%19%16)CC(=O)O (stereo not given)
CCRF-CEM [1]
  EC50: > 4 µM
CCRF-CEM [3]
  EC50: 2.01 µM

## NCCOCCOCCN1CC23C4=c5c6c7c8c9c%10c%11c%12c%13c%14c%15c%16c%17c%18c%19c%20c%21c%22c(c2c%20c2c%20c%23c%24c(c5c7c5c9c7c%11c(c%12%16)c9c%17c(c%192)c%23c9c7c%245)C%203C1)C4C1C=6C2c3c1c-%22c(c-%14c3C%13C%10C82)C%211CN(CCOCCOCCN)CC%15%181 (stereo not given)
CCRF-CEM [1]
  EC50: > 4 µM
CCRF-CEM [2]
  CC50: 7.4 µM
CCRF-CEM [3]
  EC50: > 4 µM

## NCCOCCOCCN1CC23C4=C5c6c7c8c9c(c%10c%11c%12c%13c%14c%15c%16c%17c%18c%19c%20c%21c%22c%23c(c6c6c%22c%22c%20c(c%15%19)c%13c(c%129)c%22c86)C5C5C6c8c9c(c-%17c%12c8C5C%23C%21C%12%18)C5c8c-9c(c2c-%10c8C%112CN(CCOCCOCCN)CC%142C%165)C46)C73C1 (stereo not given)
CCRF-CEM [1]
  EC50: > 4 µM
CCRF-CEM [2]
  CC50: 9.6 µM
CCRF-CEM [3]
  EC50: > 4 µM

## O=C(O)CN(CCOCCOCCN1CC23C4=C5c6c7c8c9c(c%10c%11c%12c%13c%14c%15c%16c%17c%18c%19c%20c%21c%22c%23c(c6c6c%22c%22c%20c(c%15%19)c%13c(c%129)c%22c86)C5C5C6c8c9c(c-%17c%12c8C5C%23C%21C%12%18)C5c8c-9c(c2c-%10c8C%112CN(CCOCCOCCN(CC(=O)O)CC(=O)O)CC%142C%165)C46)C73C1)CC(=O)O (stereo not given)
CCRF-CEM [1]
  EC50: > 4 µM
CCRF-CEM [3]
  EC50: > 4 µM

## C[N+]1(CCOCCOCCN)CC23C4=c5c6c7c8c9c%10c%11c%12c%13c%14c%15c%16c%17c%18c%19c%20c%21c%22c(c2c%20c2c%20c%23c%24c(c5c7c5c9c7c%11c(c%12%16)c9c%17c(c%192)c%23c9c7c%245)C%203C1)C4C1C=6C2c3c1c-%22c(c-%14c3C%13C%10C82)C%211C[N+](C)(CCOCCOCCN)CC%15%181 (stereo not given)
CCRF-CEM [1]
  EC50: > 4 µM
CCRF-CEM [2]
  CC50: 13.2 µM
CCRF-CEM [3]
  EC50: 2.6 µM

## COCCOCCOCCOC(=O)C1(C(=O)OCCOCCOCCOC)C23C4=C5c6c7c8c9c(c%10c%11c%12c%13c%14c%15c%16c%17c%18c%19c%20c%21c%22c%23c(c6c6c%22c%22c%20c(c%15%19)c%13c(c%129)c%22c86)C5C5C6c8c9c(c-%17c%12c8C5C%23C%21C%12%18)C5c8c-9c(c2c-%10c8C%112CN(CCOCCOCCN)CC%142C%165)C46)C713 (stereo not given)
CCRF-CEM [1]
  EC50: > 4 µM
CCRF-CEM [3]
  EC50: > 4 µM
